{"source": "paper PMC9564337", "about": "“Development of a Neurotensin-Derived ^68Ga-Labeled PET Ligand with High In Vivo Stability for Imaging of NTS1 Receptor-Expressing Tumors” (Cancers, 2022)", "key": {"hNTS1R [1]": {"molecular_target": "T1, hNTS1R (Homo sapiens, UniProt P30989)", "T1 construct": "intact HT-29 colon carcinoma cells expressing the hNTS1R; host or cells: HT-29 human colon carcinoma cells", "T1 sequence (P30989 whole entry)": "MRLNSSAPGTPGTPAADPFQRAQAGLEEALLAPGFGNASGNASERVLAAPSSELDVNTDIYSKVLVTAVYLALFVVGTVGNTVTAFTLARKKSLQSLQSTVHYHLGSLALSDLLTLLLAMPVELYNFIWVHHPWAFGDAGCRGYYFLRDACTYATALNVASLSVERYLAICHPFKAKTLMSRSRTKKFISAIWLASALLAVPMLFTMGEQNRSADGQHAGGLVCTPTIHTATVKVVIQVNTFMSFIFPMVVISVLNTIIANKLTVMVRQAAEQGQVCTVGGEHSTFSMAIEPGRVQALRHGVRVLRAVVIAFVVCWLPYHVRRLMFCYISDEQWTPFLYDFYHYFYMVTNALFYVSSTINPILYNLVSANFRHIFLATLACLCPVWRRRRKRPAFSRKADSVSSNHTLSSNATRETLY", "assay": "radioligand competition binding with [3H]UR-MK300 at intact HT-29 cells"}, "hNTS2R": {"molecular_target": "hNTS2R (Homo sapiens, UniProt O95665)", "sequence (O95665 whole entry)": "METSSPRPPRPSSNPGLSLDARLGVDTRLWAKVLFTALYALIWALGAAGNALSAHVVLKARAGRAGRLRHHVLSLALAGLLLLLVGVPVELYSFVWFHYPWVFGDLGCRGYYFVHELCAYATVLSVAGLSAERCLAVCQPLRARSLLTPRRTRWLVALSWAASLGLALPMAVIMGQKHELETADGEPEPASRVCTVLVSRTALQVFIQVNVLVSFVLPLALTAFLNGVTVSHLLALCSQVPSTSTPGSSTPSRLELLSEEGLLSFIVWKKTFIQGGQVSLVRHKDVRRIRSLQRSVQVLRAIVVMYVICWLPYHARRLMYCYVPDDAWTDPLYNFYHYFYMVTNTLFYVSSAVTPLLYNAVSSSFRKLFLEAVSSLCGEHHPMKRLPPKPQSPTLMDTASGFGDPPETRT", "assay": "radioligand competition binding with [3H]UR-MK300 at intact HEK293T-hNTS2R cells", "settings": "[3H]UR-MK300 c = 10 nM", "protocol": "Two days prior to the experiment, white 96-well plates with clear bottoms (Costar, catalog no. 3610) were treated with poly-D-lysine hydrobromide (Sigma-Aldrich) for 10 min. The wells were washed with H2O and the plates were dried on air at rt overnight. […] After removal of the glutaraldehyde solution, the wells were washed twelve times with H2O and two times with culture medium (150–300 µL). […] On the day of the experiment, the culture medium was carefully removed using a multi-channel pipette (Transferpette S-12, Brand, Wertheim, Germany) and the cells were washed once with Dulbecco’s phosphate-buffered saline (D-PBS) containing Ca^2+ and Mg^2+ (1.8 mM CaCl2, 2.68 mM KCl, 1.47 mM KH2PO4, 3.98 mM MgSO4, 136.9 mM NaCl and 8.06 mM Na2HPO4) (200 μL, rt) followed by the careful pre-filling of the wells with 180 µL (total binding) or 160 µL (unspecific and competition binding) of D-PBS, supplemented with 1% BSA and 100 μg/mL bacitracin (Serva, Heidelberg, Germany) (in the following referred to as binding buffer). To determine total binding, 20 µL of a solution of the radioligand in binding buffer (10-fold concentrated compared to the final concentration) were added. […] To determine the displacing effect of a compound of interest, 20 µL of a solution of the respective compound in binding buffer (10-fold concentrated) and 20 µL of a 10-fold concentrated solution of the radioligand in binding buffer were added. During the incubation period of 2 h at 23 °C, the plates were gently shaken. […] The plates were sealed with a transparent sealing tape (permanent seal for microplates, PerkinElmer, product no. 1450–461) and turned upside down several times to achieve complete mixing. Prior to the measurement of the radioactivity with a MicroBeta2 plate counter (PerkinElmer), the plates were kept in the dark for at least 1 h. All experiments were performed in triplicate."}, "hNTS1R [2]": {"molecular_target": "T1, hNTS1R", "settings": "HT-29 cells, ref Schindler et al. [3] of the supplement (= [60]), cited from earlier work"}, "[3]": {"settings": "human plasma, 37 °C, ref Schindler et al. [3] of the supplement (= [60]), cited from earlier work"}, "hNTS1R [4]": {"molecular_target": "T1, hNTS1R", "assay": "fura-2 Ca2+-assay on intact HT-29 cells", "type": "cell-based", "settings": "maximal response comparable to that of 1", "protocol": "The fura-2 calcium assay on intact hNTS1R-expressing HT-29 cells was performed as previously described for human erythroleukemia cells using a Perkin-Elmer LS50 B spectrofluorimeter (PerkinElmer, Rodgau, Germany). At a confluency of 80–95%, cells were trypsinized, detached from the culture flask and the assay was performed as described in the protocol."}, "in vitro": {"assay": "in vitro", "type": "in vitro ADME", "settings": "human"}, "[5]": {"settings": "read-out: Ki [nM] NTS2R (converted)"}}, "note": "Where two headings read alike, the source gives them in different places."}
{"smiles": "CN[C@@H](CCCNC(N)=NC(=O)NCCCCN)C(=O)N[C@@H](CCCNC(=N)N)C(=O)N1CCC[C@H]1C(=O)N[C@@H](Cc1ccc(O)cc1)C(=O)N[C@H](C(=O)N[C@@H](CC(C)C)C(=O)O)C(C)(C)C", "note": "[Compound 10]", "values": [{"measurement": "NTS1R Selectivity (Ratio Ki (NTS2R)/Ki (NTS1R))", "setting": "hNTS1R [1]", "result": 6.8}, {"measurement": "Ki", "setting": "hNTS2R; [5]", "result": 19, "unit": "nM"}, {"measurement": "Ki", "setting": "hNTS2R; read-out: pKi ± SD NTS2R (converted)", "result": 19.1, "unit": "nM"}, {"measurement": "pKi NTS1R", "setting": "hNTS1R [2]", "result": 8.55}, {"measurement": "Ki", "setting": "hNTS1R [2]; read-out: Ki [nM] NTS1R", "result": 2.8, "unit": "nM"}, {"measurement": "% Intact Peptide in Plasma after 1 h", "setting": "[3]; 1 h", "result": "> 99", "unit": "%"}, {"measurement": "% Intact Peptide in Plasma after 6 h", "setting": "[3]; 6 h", "result": "> 99", "unit": "%"}, {"measurement": "% Intact Peptide in Plasma after 24 h", "setting": "[3]; 24 h", "result": "> 99", "unit": "%"}, {"measurement": "% Intact Peptide in Plasma after 48 h", "setting": "[3]; 48 h", "result": "> 99", "unit": "%"}]}
{"smiles": "CN[C@@H](CCCNC(N)=NC(=O)NCCCCNC(=O)CN1CCN(CC(=O)O)CCN(CC(=O)O)CCN(CC(=O)O)CC1)C(=O)N[C@@H](CCCNC(=N)N)C(=O)N1CCC[C@H]1C(=O)N[C@@H](Cc1ccc(O)cc1)C(=O)N[C@H](C(=O)N[C@@H](CC(C)C)C(=O)O)C(C)(C)C", "note": "[Compound 21]", "values": [{"measurement": "NTS1R Selectivity (Ratio Ki (NTS2R)/Ki (NTS1R))", "setting": "hNTS1R [1]", "result": 6.0}, {"measurement": "pKi ± SD NTS1R", "setting": "hNTS1R [1]; [3H]UR-MK300 c = 1 nM, HT-29 cells, 23 °C", "result": "8.01 ± 0.08"}, {"measurement": "Ki", "setting": "hNTS1R [1]; [3H]UR-MK300 c = 1 nM, HT-29 cells, 23 °C, read-out: Ki [nM] NTS1R (converted)", "result": 9.9, "unit": "nM"}, {"measurement": "pKi ± SD NTS2R", "setting": "hNTS2R", "result": "7.25 ± 0.15"}, {"measurement": "Ki", "setting": "hNTS2R; [5]", "result": 59, "unit": "nM"}, {"measurement": "agonistic activity at the Gq-coupled NTS1R", "setting": "hNTS1R [4]", "result": "full agonists"}, {"measurement": "% Intact Peptide in Plasma after 24 h", "setting": "in vitro; 24 h, 100 µM, pH 7.4", "result": "26 ± 1", "unit": "%"}, {"measurement": "% Intact Peptide in Plasma after 48 h", "setting": "in vitro; 48 h, 100 µM, pH 7.4", "result": "4.1 ± 0.1", "unit": "%"}, {"measurement": "remaining at 1 h, 100 µM", "setting": "in vitro; plasma, pH 7.4, % Intact Peptide in Plasma after 1 h", "result": "> 99", "unit": "%"}, {"measurement": "remaining at 6 h, 100 µM", "setting": "in vitro; plasma, pH 7.4, % Intact Peptide in Plasma after 6 h", "result": "> 99", "unit": "%"}]}
